According to PMC5504357, “Antifungal Potential of Copper(II), Manganese(II) and Silver(I) 1,10-Phenanthroline Chelates Against Multidrug-Resistant Fungal Species Forming the Candida haemulonii Complex: Impact on the Planktonic and Biofilm Lifestyles” (Frontiers in Microbiology, 2017):
Values after ≈ are worked out from the molar mass of the structure shown. Like-named read-outs stand apart in the source and are kept apart here.

How the values were obtained:
[1] = test system: Candida duobushaemulonii; assay: Planktonic growth, broth microdilution (CLSI M27-A3), MIC; format: cell-based
From the text: (§1) Three clinical isolates of each species that form the C. haemulonii complex were used in this study: C. haemulonii (LIPCh4 from finger nail, LIPCh7 from toe nail, and LIPCh12 from blood), C. duobushaemulonii (LIPCh1 from finger nail, LIPCh6 from toe nail, and LIPCh8 from blood) and C. haemulonii var. vulnera (LIPCh5 from toe nail, LIPCh9 from urine, and LIPCh11 from blood) (Ramos et al., [2015]). The fungal isolates were identified by the automatized system VITEK® 2 and then characterized by ITS1-5.8S-ITS2 gene sequencing (Ramos et al., [2015]). Fungal cells were cultured in Sabouraud-dextrose medium under constant agitation (130 rpm) for 48 h at 37°C. Human lung adenocarcinoma A549 cells were maintained in culture flasks containing DMEM medium supplemented with 10% fetal bovine serum at 37°C in an atmosphere of 5% CO2.
(§2) Susceptibility profile assays were performed in accordance with the broth microdilution protocol described in the document M27-A3 published by the Clinical and Laboratory Standards Institutes (CLSI, [2008]). Samples of the test chelates were dissolved in DMSO (500 μL) and then serially diluted in a 96-well plate containing RPMI 1640 (Sigma-Aldrich, USA) to give the concentration range of 0.0625-32 mg/L. Aqueous solutions of the metal-free phen ligand and the simple metal salts, MnCl2, CuCl2, and AgNO3, were also screened over the same concentration range. Caspofungin (Sigma-Aldrich) was used as a classical antifungal agent able to block the growth of all clinical isolates of C. haemulonii species as previously reported by our research group (Ramos et al., [2015]). Water dilutions containing DMSO concentrations corresponding to those used to prepare the drug solutions were assessed in parallel. Untreated and compound-treated fungal cells were incubated at 37°C for 48 h and the minimal inhibitory concentration (MIC) was established as the lowest compound concentration where no cellular growth could be detected by visual inspection in accordance to the CLSI recommendation. The geometric mean of the MIC values (GM-MIC) of each compound against all the fungal isolates was calculated using the software, Microsoft Office Excel 2013.

[2] = test system: Candida haemulonii var. vulnera; assay: as above; format: cell-based
From the text: as §1, §2

[3] = test system: Candida haemulonii; assay: as above; format: cell-based
From the text: as §1, §2

[4] = test system: C. haemulonii complex; assay: Planktonic growth, overall across all nine isolates; format: cell-based, Candida haemulonii complex; settings: for Overall GM-MIC / MIC: geometric mean across all nine strains; for effect on planktonic fungal growth/viability (in words): nine clinical isolates, 0.0625-32 mg/L; for MIC: read-out: Overall GM-MIC
From the text: as §1, §2

[5] = test system: A549 cells; assay: Mammalian cell toxicity (MTT assay) and selectivity index; format: cell-based, Human
From the text: as §1
The cytotoxicity was evaluated using the MTT [3-(4,5-dimethylthiazol-2-yl)-2,5-diphenyl tetrazolium bromide] (Sigma-Aldrich) assay (Mosmann, [1983]). A549 cells (10^4) were seeded into tissue culture plates (TPP, Switzerland) and cultured for 24 h at 37°C in a 5% CO2 in order to obtain cellular confluence. The wells were then washed twice with DMEM to remove non-adherent cells and the test compounds were added (in concentrations ranging from 0.0313 to 512 μg/mL) to plates containing DMEM, followed by a 48 h incubation period under the same conditions mentioned above. The cellular viability was evaluated by adding MTT to each well and incubating the plates in the dark for 3 h, allowing the viable cells containing active mitochondrial dehydrogenase enzymes to metabolize MTT-tetrazolium salt into purple formazan. The formazan crystals were then dissolved in DMSO (100 μL) and the absorbance (450 nm) measured using a Thermomax Molecular Device microplate reader. The concentration capable of reducing cellular viability by 50% (CC50) was calculated, and the selectivity index (SI) determined using the following equation: A549 CC50/C. haemulonii complex GM-MIC.

[6] = geometric mean of three C. duobushaemulonii isolates
[7] = isolate LIP Ch1, planktonic, 48 h, 37°C
[8] = isolate LIP Ch6, planktonic, 48 h, 37°C
[9] = isolate LIP Ch8, planktonic, 48 h, 37°C
[10] = geometric mean of three C. haemulonii var. vulnera isolates
[11] = isolate LIP Ch5, planktonic, 48 h, 37°C
[12] = isolate LIP Ch9, planktonic, 48 h, 37°C
[13] = isolate LIP Ch11, planktonic, 48 h, 37°C
[14] = geometric mean of three C. haemulonii isolates
[15] = isolate LIP Ch4, planktonic, 48 h, 37°C
[16] = isolate LIP Ch7, planktonic, 48 h, 37°C
[17] = isolate LIP Ch12, planktonic, 48 h, 37°C

| SMILES | GM-MIC [1, 6] [µg/mL] | MIC [1, 7] [µg/mL] | MIC [1, 8] [µg/mL] | MIC [1, 9] [µg/mL] | GM-MIC [2, 10] [µg/mL] | MIC [2, 11] [µg/mL] | MIC [2, 12] [µg/mL] | MIC [2, 13] [µg/mL] | GM-MIC [3, 14] [µg/mL] | MIC [3, 15] [µg/mL] | MIC [3, 16] [µg/mL] | MIC [3, 17] [µg/mL] | Overall GM-MIC [4] [µg/mL] | effect on planktonic fungal growth/viability (in words) [4] | A549 (CC50) ([5]; MTT, 48 h incubation) [µg/mL] | MIC ([4]; in μM) [µM] | A549 (CC50) [5] [µg/mL] | also measured |
| --- | --- | --- | --- | --- | --- | --- | --- | --- | --- | --- | --- | --- | --- | --- | --- | --- | --- | --- |
| [Cl][Cu][Cl] [CuCl2, reference compound] | >32 | >32 | >32 | >32 | >32 | >32 | >32 | >32 | >32 | >32 | >32 | >32 | > 32 | no appreciable effects | 123.68 | – | – | – |
| CC[C@H](C)C[C@H](C)CCCCCCCCC(=O)N[C@H]1C[C@@H](O)[C@@H](NCCN)NC(=O)[C@@H]2[C@@H](O)CCN2C(=O)[C@H]([C@H](O)CCN)NC(=O)[C@H]([C@H](O)[C@@H](O)c2ccc(O)cc2)NC(=O)[C@@H]2C[C@@H](O)CN2C(=O)[C@H]([C@@H](C)O)NC1=O [Caspofungin, reference compound] | – | 0.125 (≈ 0.114 µM) | – | – | – | – | – | – | – | – | – | – | – | – | – | – | – | MIC ([1]; Candidozyma duobushaemuli, 48 h): 0.125 µg/mL (≈ 0.114 µM); MIC ([1]; Candidozyma duobushaemuli, 48 h, isolate LIP Ch6, planktonic, 48 h, 37°C, read-out: MIC): 0.25 µg/mL (≈ 0.229 µM); MIC ([1]; Candidozyma duobushaemuli, geometric mean of three C. duobushaemulonii isolates, read-out: GM-MIC): 0.157 µg/mL (≈ 0.144 µM); MIC ([2]; Candidozyma haemuli, 48 h, isolate LIP Ch5, planktonic, 48 h, 37°C, read-out: MIC): 0.25 µg/mL (≈ 0.229 µM); MIC ([2]; Candidozyma haemuli, 48 h, isolate LIP Ch9, planktonic, 48 h, 37°C, read-out: MIC): 0.25 µg/mL (≈ 0.229 µM); MIC ([2]; Candidozyma haemuli, 48 h, isolate LIP Ch11, planktonic, 48 h, 37°C, read-out: MIC): 0.5 µg/mL (≈ 0.457 µM); MIC ([2]; Candidozyma haemuli, geometric mean of three C. haemulonii var. vulnera isolates, read-out: GM-MIC): 0.315 µg/mL (≈ 0.288 µM); MIC ([3]; Candidozyma haemuli, 48 h): 0.125 µg/mL (≈ 0.114 µM); MIC ([3]; Candidozyma haemuli, 48 h, isolate LIP Ch4, planktonic, 48 h, 37°C, read-out: MIC): 0.5 µg/mL (≈ 0.457 µM); MIC ([3]; Candidozyma haemuli, 48 h, isolate LIP Ch7, planktonic, 48 h, 37°C, read-out: MIC): 0.25 µg/mL (≈ 0.229 µM); MIC ([3]; Candidozyma haemuli, geometric mean of three C. haemulonii isolates, read-out: GM-MIC): 0.25 µg/mL (≈ 0.229 µM); MIC ([4]; Candidozyma haemuli, in μM): 0.18 µM; MIC ([4]; Candidozyma haemuli): 0.23 µg/mL |
| O.O.O=C([O-])c1ccccc1C(=O)[O-].[Cu+2].c1cnc2c(c1)ccc1cccnc12 [compound 1, [Cu(ph)(phen)(H2O)2]] | >32 | >32 | >32 | >32 | >32 | >32 | >32 | >32 | >32 | >32 | >32 | >32 | > 32 | – | – | > 72 | 0.53 | – |
| [Cl][Mn][Cl] [MnCl2, reference compound] | >32 | >32 | >32 | >32 | >32 | >32 | >32 | >32 | >32 | >32 | >32 | >32 | > 32 | no appreciable effects | 133.76 | – | – | – |
| CCO.CCO.O=C([O-])c1ccc(C(=O)[O-])cc1.O=C([O-])c1ccc(C(=O)[O-])cc1.[Cu+2].[Cu+2].c1cnc2c(c1)ccc1cccnc12.c1cnc2c(c1)ccc1cccnc12.c1cnc2c(c1)ccc1cccnc12.c1cnc2c(c1)ccc1cccnc12 [compound 4, [{Cu(phen)2}2(terph)](terph).13.5H2O.2EtOH] | >32 | >32 | >32 | >32 | 32 | 32 | 32 | 32 | >32 | >32 | >32 | >32 | > 32 | – | 3.86 | > 21.92 | – | – |
| CCO.CCO.O.O.O.O=C([O-])c1ccccc1C(=O)[O-].[Cu+2].c1cnc2c(c1)ccc1cccnc12.c1cnc2c(c1)ccc1cccnc12 [compound 2, [Cu(ph)(phen)2].3H2O.2EtOH] | >32 | >32 | >32 | >32 | >32 | >32 | >32 | >32 | >32 | >32 | >32 | >32 | > 32 | – | – | > 43.52 | 1.93 | – |
